Source: patent US20070213311A1, “Modulators of 11-beta hydroxyl steroid dehydrogenase type 1, pharmaceutical compositions thereof, and methods of using the same” (priority 2006, published 2007)

Legend:
[1] = biological target: T1, full-length human 11βHSD1 (Homo sapiens, UniProt P28845); experiment: Enzymatic assay of 11βHSD1 (Scintillation Proximity Assay, clarified lysates of HEK-293 transfectants); format: biochemical; details: SPA, 25 nM 3H-cortisone, 400 μM NADPH, 37° C. for one hour
T1 construct: made in house; host or cells: HEK-293 transient transfectants; clarified lysate, not purified
Protocol: Enzymatic Assay of 11βHSD1
All in vitro assays were performed with clarified lysates as the source of 11βHSD1 activity. HEK-293 transient transfectants expressing an epitope-tagged version of full-length human 11βHSD1 were harvested by centrifugation. Roughly 2×10^7 cells were resuspended in 40 mL of lysis buffer (25 mM Tris-HCl, pH 7.5, 0.1 M NaCl, 1 mM MgCl2 and 250 mM sucrose) and lysed in a microfluidizer. Lysates were clarified by centrifugation and the supernatants were aliquoted and frozen.
Inhibition of 11βHSD1 by test compounds was assessed in vitro by a Scintillation Proximity Assay (SPA). Dry test compounds were dissolved at 5 mM in DMSO. These were diluted in DMSO to suitable concentrations for the SPA assay. 0.8 μL of 2-fold serial dilutions of compounds were dotted on 384 well plates in DMSO such that 3 logs of compound concentration were covered. 20 μL of clarified lysate was added to each well. Reactions were initiated by addition of 20 μL of substrate-cofactor mix in assay buffer (25 mM Tris-HCl, pH 7.5, 0.1 M NaCl, 1 mM MgCl2) to final concentrations of 400 μM NADPH, 25 nM ^3H-cortisone and 0.007% Triton X-100. Plates were incubated at 37° C. for one hour. […] Quenched plates were incubated for a minimum of 30 minutes at RT prior to reading on a Topcount scintillation counter. […]

11βHSD1 in the eye = biological target: T2, 11βHSD1 in the eye (Homo sapiens, UniProt P28845); details: healthy volunteers, after seven days of carbenoxolone treatment; cited from earlier work
T2 construct: 11βHSD1 has been localized to NPE cells; host or cells: eye of healthy volunteers, in vivo
T2 sequence (P28845 whole entry): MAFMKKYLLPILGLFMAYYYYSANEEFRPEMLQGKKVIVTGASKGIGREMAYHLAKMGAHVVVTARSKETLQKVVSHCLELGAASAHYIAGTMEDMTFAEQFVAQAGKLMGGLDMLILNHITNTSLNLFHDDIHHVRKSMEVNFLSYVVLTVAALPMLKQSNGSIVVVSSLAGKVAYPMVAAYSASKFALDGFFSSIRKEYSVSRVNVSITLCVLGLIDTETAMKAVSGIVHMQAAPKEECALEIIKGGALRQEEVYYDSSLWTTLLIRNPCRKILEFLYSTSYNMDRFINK

T1 sequence (P28845 whole entry): as above

| IC50 [1] [nM] | SMILES | IOP was reduced by (11βHSD1 in the eye) [%] |
| --- | --- | --- |
| < 1000 | O=C1OC2(CCN(C(=O)C(O)c3ccc(Br)cc3F)C2)c2ccccc21 (centres unmarked) [Example 1, 1′-[(4-Bromo-2-fluorophenyl)(hydroxy)acetyl]-3H-spiro[2-benzofuran-1,3′-pyrrolidin]-3-one] | – |
| – | CC1(C)[C@@H](OC(=O)CCC(=O)O)CC[C@]2(C)[C@H]3C(=O)C=C4[C@@H]5C[C@@](C)(C(=O)O)CC[C@]5(C)CC[C@@]4(C)[C@]3(C)CC[C@@H]12 [carbenoxolone] | 18 |
